According to US8586782B2, “Phenylacetic acid derivatives” (Novartis AG, priority 2006, dated 2013):

How the values were obtained:
COX-1 = target: T1, COX-1 (Homo sapiens, UniProt P23219); test: COX-1 inhibition in human whole blood (A23187-stimulated TxB2 production); format: cell-based; conditions: TxB2 after A23187 50 μM 1 h, average where more than one assay, read-out: COX-1_Blood IC50 [μM] (Avg)
T1 construct: COX-1 is constitutively expressed in platelets; endogenous in cells; host or cells: heparinized human whole blood (platelets, A23187-stimulated)
T1 sequence (P23219 24-599): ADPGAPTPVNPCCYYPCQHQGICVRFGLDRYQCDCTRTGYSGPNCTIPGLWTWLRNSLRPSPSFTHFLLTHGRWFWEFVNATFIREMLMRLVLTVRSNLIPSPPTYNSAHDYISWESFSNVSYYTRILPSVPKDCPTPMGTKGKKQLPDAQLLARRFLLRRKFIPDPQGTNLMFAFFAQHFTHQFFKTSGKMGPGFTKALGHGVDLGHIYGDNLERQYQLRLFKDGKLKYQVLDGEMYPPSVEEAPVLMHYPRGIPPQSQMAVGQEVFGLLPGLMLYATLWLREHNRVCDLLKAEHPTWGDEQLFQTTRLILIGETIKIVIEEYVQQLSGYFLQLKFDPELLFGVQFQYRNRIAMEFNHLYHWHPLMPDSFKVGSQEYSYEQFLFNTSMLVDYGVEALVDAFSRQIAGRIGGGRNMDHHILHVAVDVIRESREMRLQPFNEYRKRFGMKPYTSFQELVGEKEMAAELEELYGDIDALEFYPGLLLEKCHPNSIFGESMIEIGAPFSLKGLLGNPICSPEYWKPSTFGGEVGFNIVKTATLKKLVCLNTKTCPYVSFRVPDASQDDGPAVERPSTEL
Experimental: (§1) In vitro COX-1 and COX-2 inhibition is also determined in human whole blood where COX-1 is constitutively expressed in platelets and COX-2 expression is induced in mononuclear cells by treatment with lipopolysaccharide (LPS) (10 μg/mL). For this assay heparinized human blood is divided into two aliquots: one for measuring TxB2 production (a surrogate indicator of COX-1 activity) and a second for measuring PGE2 production (a surrogate for COX-2 activity). The blood samples are pretreated with test compounds for one hour before stimulation. Compounds are tested in a final concentration range from 0.1 nM to 300 μM using half log increases in concentrations. To measure inhibition of thromboxane B2 (TxB2) generation, A23187 (50 μM) is added, and the blood incubated for one hour. PGE2 production is measured after the addition of LPS (10 μg/mL) followed by overnight incubation. After incubation with A23187 or LPS the samples are centrifuged at 250×g for 10 minutes at 4° C. to collect serum. The amounts PGE2 and TxB2 present in the serum are measured using a chemiluminesence enzyme immunoassay from Assay Designs Inc. (Ann Arbor, Mich.). The levels of prostaglandin in each sample are normalized to the percent inhibition caused by each concentration of the test compound. The percent inhibition data for each donor is pooled and fitted to a 4-parameter logistic function using a regression.

COX-2 = target: T2, COX-2 (Homo sapiens, UniProt P35354); test: COX-2 inhibition in human whole blood (LPS-induced PGE2 production); format: cell-based; conditions: PGE2 after LPS 10 μg/mL overnight, average where more than one assay, read-out: COX-2_Blood IC50 [μM] (Avg)
T2 construct: COX-2 expression is induced in mononuclear cells by treatment with lipopolysaccharide (LPS); endogenous in cells; host or cells: heparinized human whole blood (mononuclear cells, LPS-induced)
T2 sequence (P35354 18-604): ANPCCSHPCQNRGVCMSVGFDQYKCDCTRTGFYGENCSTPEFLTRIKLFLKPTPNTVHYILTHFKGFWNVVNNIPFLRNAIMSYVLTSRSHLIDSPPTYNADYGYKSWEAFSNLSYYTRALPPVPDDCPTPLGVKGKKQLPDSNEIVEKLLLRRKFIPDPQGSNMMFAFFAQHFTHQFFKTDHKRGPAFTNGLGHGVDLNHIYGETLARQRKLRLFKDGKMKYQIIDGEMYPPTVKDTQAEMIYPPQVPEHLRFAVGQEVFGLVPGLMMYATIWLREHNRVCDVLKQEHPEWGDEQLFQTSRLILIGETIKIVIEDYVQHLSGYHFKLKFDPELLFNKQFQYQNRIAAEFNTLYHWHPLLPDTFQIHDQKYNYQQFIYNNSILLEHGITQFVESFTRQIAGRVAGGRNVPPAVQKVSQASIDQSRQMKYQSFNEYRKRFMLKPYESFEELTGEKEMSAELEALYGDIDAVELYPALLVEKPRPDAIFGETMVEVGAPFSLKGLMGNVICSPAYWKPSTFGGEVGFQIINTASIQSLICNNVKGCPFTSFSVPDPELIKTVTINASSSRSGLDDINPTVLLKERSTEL
Experimental: as §1

Cc1ccc(Nc2ccc(Cl)c(C)c2Cl)c(CC(=O)O)c1 [Example 5e, 5-Methyl-2-(2′,4′-dichloro-3′-methylanilino)phenylacetic acid]
IC50 (COX-1): 126 µM
IC50 (COX-2): 0.073 µM

Cc1ccc(Nc2ccc(Cl)c(C)c2F)c(CC(=O)O)c1 [Example 5i, 5-Methyl-2-(2′-fluoro-4′-chloro-3′-methylanilino)phenylacetic acid]
IC50 (COX-1): 129 µM
IC50 (COX-2): 0.295 µM

CCc1ccc(Nc2ccc(C)c(C(F)(F)F)c2F)c(CC(=O)O)c1 [Example 5a, 5-Ethyl-2-(2′-fluoro-4′-methyl-3′-trifluoromethylanilino)phenylacetic acid]
IC50 (COX-1): 155 µM
IC50 (COX-2): 0.1 µM

CCc1c(Cl)ccc(Nc2ccc(C)cc2CC(=O)O)c1F [Example 5k, 5-Methyl-2-(2′-fluoro-4′-chloro-3′-ethylanilino)phenylacetic acid]
IC50 (COX-1): 183 µM
IC50 (COX-2): 0.165 µM

CCc1ccc(Nc2ccc(Cl)c(C(C)C)c2F)c(CC(=O)O)c1 [Example 5m, 5-Ethyl-2-(2′-fluoro-4′-chloro-3′-isopropylanilino)phenylacetic acid]
IC50 (COX-1): 127 µM
IC50 (COX-2): 0.17 µM
